Measured values from ChEMBL document CHEMBL1155774, “Pharmacokinetics, safety, and hydrolysis of oral pyrroloquinazolinediamines administered in single and multiple doses in rats” (Antimicrob Agents Chemother, 2007).

Key:
Rattus norvegicus [1] = experiment: Cmax in intragastrically dosed Sprague-Dawley rat assessed as pyrroloquinazolinediamine level at 95 umol/kg administered as single dose; format: ADME, organism-based; set-up: dose 95 umol/kg, route intragastric; settings: in vivo, po
Rattus norvegicus [2] = experiment: Anorexic toxicity in intragastrically dosed Sprague-Dawley rat assessed as ratio of body weight change to day of weight change at 23.8 umol/kg administered daily for 3 days measured after 14 days; format: organism-based; settings: in vivo, po, 336 h
Rattus norvegicus [3] = experiment: Cmax in intragastrically dosed Sprague-Dawley rat assessed as pyrroloquinazolinediamine level at 47.6 umol/kg administered daily for 3 days measured on day 1; format: ADME, organism-based; set-up: dose 47.6 umol/kg, route intragastric; settings: in vivo, po, 72 h
Rattus norvegicus [4] = experiment: Anorexic toxicity in intragastrically dosed Sprague-Dawley rat assessed as ratio of body weight change to day of weight change at 11.9 umol/kg administered daily for 3 days measured after 14 days; format: organism-based; settings: in vivo, po, 336 h
Rattus norvegicus [5] = experiment: Anorexic toxicity in intragastrically dosed Sprague-Dawley rat assessed as ratio of body weight change to day of weight change at 1170 umol/kg administered as single dose after 14 days; format: organism-based; settings: in vivo, po, 336 h
Rattus norvegicus [6] = experiment: Elimination half life in intragastrically dosed Sprague-Dawley rat assessed as pyrroloquinazolinediamine level at 95 umol/kg administered as single dose; format: ADME, organism-based; settings: in vivo, po
Rattus norvegicus [7] = experiment: Elimination half life in intragastrically dosed Sprague-Dawley rat assessed as pyrroloquinazolinediamine level at 47.6 umol/kg administered daily for 3 days measured on day 3; format: ADME, organism-based; settings: in vivo, po, 72 h
Rattus norvegicus [8] = experiment: Tmax in intragastrically dosed Sprague-Dawley rat assessed as pyrroloquinazolinediamine level at 47.6 umol/kg administered daily for 3 days measured on day 1; format: ADME, organism-based; settings: in vivo, po, 72 h
Rattus norvegicus [9] = experiment: Tmax in intragastrically dosed Sprague-Dawley rat assessed as pyrroloquinazolinediamine level at 47.6 umol/kg administered daily for 3 days measured on day 3; format: ADME, organism-based; settings: in vivo, po, 72 h
Rattus norvegicus [10] = experiment: AUC (0 to infinity) in intragastrically dosed Sprague-Dawley rat assessed as pyrroloquinazolinediamine level at 47.6 umol/kg administered daily for 3 days measured on day 3; format: ADME, organism-based, Plasma; set-up: dose 47.6 umol/kg, time infinity, route intragastric; settings: in vivo, po, 72 h
Rattus norvegicus [11] = experiment: Bioavailability in intragastrically dosed Sprague-Dawley rat assessed as pyrroloquinazolinediamine level at 95 umol/kg administered as single dose; format: ADME, organism-based; settings: in vivo, po
[12] = Toxicity in intragastrically dosed Sprague-Dawley rat; format: organism-based; settings: in vivo, po
Rattus norvegicus [13] = experiment: AUC (0 to infinity) in intragastrically dosed Sprague-Dawley rat assessed as pyrroloquinazolinediamine level at 95 umol/kg administered as single dose; format: ADME, organism-based, Plasma; set-up: dose 95 umol/kg, time infinity, route intragastric; settings: in vivo, po
Rattus norvegicus [14] = experiment: Total AUC in intragastrically dosed Sprague-Dawley rat assessed as pyrroloquinazolinediamine level at 47.6 umol/kg administered daily for 3 days measured on day 3; format: ADME, organism-based; set-up: dose 47.6 umol/kg, route intragastric, time AUCmax; settings: in vivo, po, 72 h
Rattus norvegicus [15] = experiment: Anorexic toxicity in intragastrically dosed Sprague-Dawley rat assessed as ratio of body weight change to day of weight change at 195 umol/kg administered as single dose after 14 days; format: organism-based; settings: in vivo, po, 336 h
Rattus norvegicus [16] = experiment: Anorexic toxicity in intragastrically dosed Sprague-Dawley rat assessed as ratio of body weight change to day of weight change after 14 days; format: organism-based; settings: in vivo, po, 336 h
Rattus norvegicus [17] = experiment: Tmax in intragastrically dosed Sprague-Dawley rat assessed as pyrroloquinazolinediamine level at 95 umol/kg administered as single dose; format: ADME, organism-based; settings: in vivo, po
[18] = Toxicity in intragastrically dosed Sprague-Dawley rat assessed as maximum tolerated dose; format: organism-based; settings: in vivo, po
Rattus norvegicus [19] = experiment: Toxicity in intragastrically dosed Sprague-Dawley rat assessed as mortality at 2340 umol/kg administered as single dose after 14 days; format: organism-based; settings: in vivo, po, 336 h
Rattus norvegicus [20] = experiment: Anorexic toxicity in intragastrically dosed Sprague-Dawley rat assessed as ratio of body weight change to day of weight change at 47.6 umol/kg administered daily for 3 days measured after 14 days; format: organism-based; settings: in vivo, po, 336 h
Rattus norvegicus [21] = experiment: Anorexic toxicity in intragastrically dosed Sprague-Dawley rat assessed as ratio of body weight change to day of weight change at 780 umol/kg administered as single dose after 14 days; format: organism-based; settings: in vivo, po, 336 h
Rattus norvegicus [22] = experiment: Cmax in intragastrically dosed Sprague-Dawley rat assessed as pyrroloquinazolinediamine level at 47.6 umol/kg administered daily for 3 days measured on day 3; format: ADME, organism-based; set-up: dose 47.6 umol/kg, route intragastric; settings: in vivo, po, 72 h
Rattus norvegicus [23] = experiment: Elimination half life in intragastrically dosed Sprague-Dawley rat assessed as pyrroloquinazolinediamine level at 47.6 umol/kg administered daily for 3 days measured on day 1; format: ADME, organism-based; settings: in vivo, po, 72 h
Rattus norvegicus [24] = experiment: AUC (0 to infinity) in intragastrically dosed Sprague-Dawley rat assessed as pyrroloquinazolinediamine level at 47.6 umol/kg administered daily for 3 days measured on day 1; format: ADME, organism-based, Plasma; set-up: dose 47.6 umol/kg, time infinity, route intragastric; settings: in vivo, po, 72 h
Rattus norvegicus [25] = experiment: Anorexic toxicity in intragastrically dosed Sprague-Dawley rat assessed as ratio of body weight change to day of weight change at 95 umol/kg administered daily for 3 days measured after 14 days; format: organism-based; settings: in vivo, po, 336 h
Rattus norvegicus [26] = experiment: Bioavailability in intragastrically dosed Sprague-Dawley rat assessed as pyrroloquinazolinediamine level at 47.6 umol/kg administered daily for 3 days measured on day 1; format: ADME, organism-based; settings: in vivo, po, 72 h
Rattus norvegicus [27] = experiment: Bioavailability in intragastrically dosed Sprague-Dawley rat assessed as pyrroloquinazolinediamine level at 47.6 umol/kg administered daily for 3 days measured on day 3; format: ADME, organism-based; settings: in vivo, po, 72 h
Rattus norvegicus [28] = experiment: Anorexic toxicity in intragastrically dosed Sprague-Dawley rat assessed as ratio of body weight change to day of weight change at 2340 umol/kg administered as single dose after 14 days; format: organism-based; settings: in vivo, po, 336 h
Rattus norvegicus [29] = experiment: AUC in intragastrically dosed Sprague-Dawley rat assessed as bisacetamide pyrroloquinazolinediamine level at 95 umol/kg administered as single dose; format: ADME, organism-based, Plasma; settings: in vivo, po
Rattus norvegicus [30] = experiment: Metabolic stability in intragastrically dosed Sprague-Dawley rat assessed as formation of pyrroloquinazolinediamine; format: ADME, organism-based; settings: in vivo, po
Rattus norvegicus [31] = experiment: Anorexic toxicity in intragastrically dosed Sprague-Dawley rat assessed as ratio of body weight change to day of weight change at 190 umol/kg administered daily for 3 days measured after 14 days; format: organism-based; settings: in vivo, po, 336 h
Rattus norvegicus [32] = experiment: Toxicity in intragastrically dosed Sprague-Dawley rat at 2340 umol/kg; format: organism-based; settings: in vivo, po
Rattus norvegicus [33] = experiment: Anorexic toxicity in intragastrically dosed Sprague-Dawley rat assessed as ratio of body weight change to day of weight change at 1560 umol/kg administered as single dose after 14 days; format: organism-based; settings: in vivo, po, 336 h
Plasma = experiment: Metabolic stability in Sprague-Dawley rat plasma assessed as formation of pyrroloquinazolinediamine after 30 mins; format: ADME, cell-free; settings: 0.5 h
Rattus norvegicus [34] = experiment: Elimination half life in intragastrically dosed Sprague-Dawley rat assessed as monoacetamide pyrroloquinazolinediamine level at 95 umol/kg administered as single dose; format: ADME, organism-based; settings: in vivo, po
Rattus norvegicus [35] = experiment: AUC in intragastrically dosed Sprague-Dawley rat assessed as monoacetamide pyrroloquinazolinediamine level at 95 umol/kg administered as single dose; format: ADME, organism-based, Plasma; settings: in vivo, po
Rattus norvegicus [36] = experiment: Elimination half life in intragastrically dosed Sprague-Dawley rat assessed as bisacetamide pyrroloquinazolinediamine level at 95 umol/kg administered as single dose; format: ADME, organism-based; settings: in vivo, po

Row | SMILES | Cmax (Rattus norvegicus [1]) [ng/mL] | Ratio (Rattus norvegicus [2]) | Cmax (Rattus norvegicus [3]) [ng/mL] | Ratio (Rattus norvegicus [4]) | Ratio (Rattus norvegicus [5]) | t1/2 (Rattus norvegicus [6]) [h] | t1/2 (Rattus norvegicus [7]) [h] | Tmax (Rattus norvegicus [8]) [h] | Tmax (Rattus norvegicus [9]) [h] | AUC (Rattus norvegicus [10]) [ng·h/mL] | F (Rattus norvegicus [11]) [%] | AUC (Rattus norvegicus [13]) [ng·h/mL] | AUC (Rattus norvegicus [14]) [ng·h/mL] | Ratio (Rattus norvegicus [15]) | ID50 (Rattus norvegicus [16]) [µmol/kg] | Tmax (Rattus norvegicus [17]) [h] | MTD [18] [µmol/kg] | Ratio (Rattus norvegicus [20]) | Ratio (Rattus norvegicus [21]) | Cmax (Rattus norvegicus [22]) [ng/mL] | other results
1 | CCOC(=O)Nc1nc(NC(=O)OCC)c2c(ccc3c2ccn3Cc2ccccc2C(F)(F)F)n1 | 108.7 | 1.88 | 59.46 | 2.42 | 0.84 | 13.59 | 16.93 | 3 | 3.33 | 1529.6 | 14.86 | 1381.4 | 2856.1 | 2.49 | 60.65 | 3.83 | 1170 | 0.71 | 2.21 | 63.36 | LD50 [12]: 1570 µmol/kg; Activity (Rattus norvegicus [19]): Toxic; t1/2 (Rattus norvegicus [23]): 13.29 h; AUC (Rattus norvegicus [24]): 875.5 ng·h/mL; Ratio (Rattus norvegicus [25]): -0.65; F (Rattus norvegicus [26]): 20.45%; F (Rattus norvegicus [27]): 31.06%
2 | CC(=O)N(C(C)=O)c1nc(N(C(C)=O)C(C)=O)c2c(ccc3c2ccn3Cc2ccccc2C(F)(F)F)n1 | 60.5 | 2.61 | 31.23 | 2.46 | 2.76 | 13.2 | 17.66 | 7 | 5.67 | 1250.1 | 11.45 | 1047.3 | 1903.5 | 2.55 | 140.43 | 5.33 | 2340 | 2.06 | 2.47 | 30.84 | Ratio (Rattus norvegicus [28]): 1.03; AUC (Rattus norvegicus [29]): 24.9 ng·h/mL; Activity (Rattus norvegicus [30]): 84%; Ratio (Rattus norvegicus [31]): -0.89; Activity (Rattus norvegicus [32]): Non-toxic; Ratio (Rattus norvegicus [33]): 2.08; Activity (Plasma): 49%; t1/2 (Rattus norvegicus [34]): 13.16 h; AUC (Rattus norvegicus [35]): 176.5 ng·h/mL; t1/2 (Rattus norvegicus [36]): 12.64 h; t1/2 (Rattus norvegicus [23]): 12.86 h; AUC (Rattus norvegicus [24]): 705.9 ng·h/mL; Ratio (Rattus norvegicus [25]): 1.18; F (Rattus norvegicus [26]): 16.49%; F (Rattus norvegicus [27]): 26.96%
